# Reference: patent US20220226338A1, “Methods of Treating Cancer Using CHK1 Inhibitors” (Sierra Oncology, Inc., priority 2019, published 2022)
# Experiments:
# [1] = system: plasma protein; experiment: Plasma protein binding, ultracentrifugation, human plasma; type: in vitro ADME
# Experimental: (§1) The PK of SRA737 have been determined in the mouse, rat, dog and monkey following oral and IV administration (Table 3). […] An acceptable terminal elimination t1/2 was also observed in each species. […] The plasma protein binding of SRA737 at 1 and 10 μM was examined in mouse, minipig, monkey and human plasma using ultracentrifugation and in dog plasma (10 μM) using rapid equilibrium dialysis.
# [2] = Single dose PK, monkey; type: in vivo
# From the text: (§2) Several studies have been conducted to evaluate the PK properties of SRA737, such as the absorption (in vitro permeability assays and in vivo PK following IV and oral administration), distribution (in vivo tissue distribution and in vitro plasma protein binding) and metabolism (in vitro hepatocyte and CYP inhibition and induction studies) of SRA737.
# as §1
# [3] = system: Chk1 autophosphorylation; experiment: In vitro Chk1 inhibition after genotoxic chemotherapy (autophosphorylation, checkpoint arrest, cytotoxicity potentiation); type: cell-based
# [4] = system: plasma protein; experiment: Plasma protein binding, ultracentrifugation, monkey plasma; type: in vitro ADME
# Experimental: as §1
# [5] = system: cryopreserved hepatocytes; experiment: Stability in cryopreserved minipig hepatocytes; type: in vitro ADME; settings: 10 μM, after 4 hours of incubation
# Experimental: (§3) The formation of SRA737-related metabolites was determined in cryopreserved hepatocytes from human, mouse, rat, dog, minipig and monkey samples after incubation with SRA737 at a nominal concentration of 10 μM for up to 4 hours. […] In the human hepatocyte preparation, approximately 67% of the parent remained after 4 hours of incubation compared to 75% and 7% in the rat and minipig preparations, respectively. Eight human SRA737 metabolites were observed. All SRA737 metabolites formed by human hepatocytes were also formed by monkey hepatocytes. Six metabolites were present at equal or greater abundance in the monkey.
# [6] = system: plasma protein; experiment: Plasma protein binding, rapid equilibrium dialysis, dog plasma; type: in vitro ADME; settings: 10 μM
# Experimental: as §1
# [7] = system: cancer xenograft models; experiment: In vivo efficacy studies in xenograft, PDX and syngeneic models; design: species or system mouse
# Experimental: A program of in vivo efficacy studies was performed to assess the activity of SRA737 in combination with genotoxic chemotherapy and targeted agents, and as monotherapy.
# One of these models also carried a MYCN amplification. A fourth HGSOC PDX model with partial resistance to PARPi was also sensitive to high dose SRA737 monotherapy.
# [8] = Single dose PK, rat; type: in vivo; settings: Rat oral 10 mg/kg single dose
# From the text: as §2, §1
# [9] = Three-cycle combination toxicity study with gemcitabine and cisplatin; type: in vivo, mouse; settings: mice; SRA737 with IV gemcitabine and cisplatin, intermittent schedule over 18 days; high dose triplet group
# From the text: Clinical combination of SRA737 and gemcitabine in some cases therefore elicited exacerbated hematological and GI toxicities.
# [10] = SRA737 monotherapy clinical study (SRA737-01), pharmacokinetics; type: in vivo, human
# Experimental: A Phase 1 clinical trial was conducted in ‘all comers,’ i.e. no genetic selection was performed, to establish safety, tolerability and pharmacokinetics (“Dose Escalation Phase”). Cohorts consisting initially of a single subject received escalating doses of SRA737, starting in Cohort 1 with 20 mg/day administered orally on a continuous daily dosing schedule in 28 day cycles. the dose was escalated until the maximum tolerated dose (MTD) was identified.
# Cmin was calculated at 1000 mg QD (411 ng/mL) and exceeded that determined in preclinical models to be effective. Doses ≥300 mg QD also exceeded the preclinical models to be effective.
# A Dose Escalation phase employed an accelerated titration design starting at 20 mg SRA737, administered QD orally in 28-day cycles. Incremental dose escalations in single-subject cohorts were followed by a rolling-6 design once SRA737-related ≥Grade 2 toxicity was observed during Cycle 1.
# The plasma pharmacokinetics of SRA737 were reproducible and generally dose concordant. […] All doses ≥300 mg QD also exceeded this threshold level.
# [11] = Parallel artificial membrane permeability assay (PAMPA); type: in vitro ADME
# Experimental: The membrane permeability of SRA737 was assessed in the parallel artificial membrane permeability assay (PAMPA) and Caco-2 assays. Permeability in the PAMPA assay was classified as low.
# [12] = system: cryopreserved hepatocytes; experiment: Stability and metabolites in cryopreserved human hepatocytes; type: in vitro ADME
# Experimental: as §3
smiles,measurement,setting,value
"N#Cc1cnc(Nc2cc(NCC3CNCCO3)c(C(F)(F)F)cn2)cn1 (stereo not drawn) [SRA737, 5-[[4-[[morpholin-2-yl]methylamino]-5-(trifluoromethyl)-2-pyridyl]amino]pyrazine-2-carbonitrile]",Percentage Bound,[1]; 1 μM,87.7%
same,Percentage Free,[1]; 1 μM,12.4%
same,Percentage Bound,[1]; 10 μM,87.2%
same,Percentage Free,[1]; 10 μM,12.8%
same,Foral,[2]; Monkey oral 2 mg/kg single dose,90%
same,Foral,[2]; Monkey oral 10 mg/kg single dose,104%
same,inhibition of genotoxicity-induced checkpoint arrest,[3],dose-dependent inhibition
same,potentiation of the cytotoxicity of genotoxic chemotherapeutic agents and targeted agents,[3],dose-dependent potentiation
same,inhibition of genotoxic chemotherapy-induced Chk1 autophosphorylation,[3]; data not shown,potently inhibited
same,Percentage Bound,[4]; 1 μM,88.8%
same,Percentage Free,[4]; 1 μM,11.2%
same,Percentage Bound,[4]; 10 μM,85.8%
same,Percentage Free,[4]; 10 μM,14.2%
same,parent remaining,[5],7%
same,Percentage Bound,[6],68.8%
same,Percentage Free,[6],31.2%
same,synergy with gemcitabine and carboplatin,"[7]; Calu6 model, data not shown",Synergy
same,antitumor activity as a single agent,"[7]; HGSOC PDX models harboring CCNE1 amplifications accompanied by TP53 mutations, data not shown",Significant antitumor activity
same,synergy with low-dose gemcitabine,"[7]; HT29 (FIG. 5), OVCAR3 and SJSA-1 CDX models, PDX model of TNBC",Synergy was also observed
same,antitumor activity in combination with standard-dose gemcitabine,"[7]; HT29, SJSA-1, SW620, Calu6, KPC-1 and patient-derived bladder carcinoma xenograft models, data not shown","Significant, dose-dependent antitumor activity"
same,synergy with irinotecan,"[7]; HT29 model, data not shown",Synergy
same,single agent efficacy,"[7]; OVCAR3, Eμ-Myc, MOLM-13, TH-MYC, MDA-MB-231, Renca and LL/2 models, data not shown",demonstrated single agent efficacy
same,sensitivity to high dose SRA737 monotherapy,[7]; fourth HGSOC PDX model with partial resistance to PARPi,sensitive
same,antitumor activity in combination with a PD1/PD-L1 inhibitor,"[7]; syngeneic mouse models mTmG, MC38 and Pan02, data not shown",Significant antitumor activity
same,Foral,[8],42%
same,additional finding in triple combination study,[9],reversible intestinal epithelial degeneration
same,CL/F,"[10]; human, in vivo, 160 mg",70.0 L/h
same,Vd/F,"[10]; human, in vivo, 160 mg",1390 L
same,CL/F,"[10]; human, in vivo, 300 mg",81.9 L/h
same,Vd/F,"[10]; human, in vivo, 300 mg",1020 L
same,t1/2,"[10]; human, in vivo, 300 mg",8.6 h
same,CL/F,"[10]; human, in vivo, 600 mg",56.9 L/h
same,Vd/F,"[10]; human, in vivo, 600 mg",1090 L
same,AUC(0-t),"[10]; human, in vivo, 800 mg",18500 ng·h/mL
same,CL/F,"[10]; human, in vivo, 800 mg",39.1 L/h
same,Cmax,"[10]; human, in vivo, 800 mg",1880 ng/mL
same,Vd/F,"[10]; human, in vivo, 800 mg",596 L
same,t1/2,"[10]; human, in vivo, 800 mg",10.5 h
same,AUC0-24 h,"[10]; human, in vivo, 1000 mg",20270 ng·h/mL
same,CL/F,"[10]; human, in vivo, 1000 mg",44.9 L/h
same,Cmax,"[10]; human, in vivo, 1000 mg",2098 ng/mL
same,Vd/F,"[10]; human, in vivo, 1000 mg",704 L
same,CL/F,"[10]; human, in vivo, 1300 mg",38.6 L/h
same,Vd/F,"[10]; human, in vivo, 1300 mg",625 L
same,doses at which Cmin exceeded that effective in preclinical models,[10]; monotherapy,≥ 300 mg QD
same,Cmin,[10]; monotherapy PK dose 160 mg (n = 1),31.7 ng/mL
same,Cmin,[10]; monotherapy PK dose 300 mg (n = 1),41.2 ng/mL
same,Cmin,[10]; monotherapy PK dose 600 mg (n = 4),129 ng/mL
same,Cmin,[10]; monotherapy PK dose 800 mg (n = 38),234 ng/mL
same,Cmin,[10]; monotherapy PK dose 1000 mg (n = 44-45),289 ng/mL
same,Cmin,[10]; monotherapy PK dose 1300 mg (n = 3),466 ng/mL
same,permeability in the PAMPA assay,[11],low
same,number of human SRA737 metabolites observed,[12],Eight
same,parent remaining,"[12]; 10 μM, after 4 hours of incubation",approximately 67%
